Reference: ChEMBL document CHEMBL1201862, “PubChem BioAssay data set” (2004)
Active and inactive are the calls of the source.

Key:
[1] = A cytotoxicity screen of small molecule inhibitors of the PhoP region in Salmonella typhi identified in the primary screen. [Related pubchem assays: 1850, 1864, 1985 ]; assay type: functional
[2] = Luminescence Cell-Based Dose Confirmation HTS to Identify Inhibitors of Platelet Dense Granule Release. [Related pubchem assays: 1663 (Primary HTS), 1678 (Summary of Project)]; assay type: functional
[3] = target: T1, Cytochrome P450 1A2 (Homo sapiens, UniProt P05177);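 note: PubChem cytochrome P450 panel assay, CYP1A2 panel member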
T1 sequence (P05177 whole entry): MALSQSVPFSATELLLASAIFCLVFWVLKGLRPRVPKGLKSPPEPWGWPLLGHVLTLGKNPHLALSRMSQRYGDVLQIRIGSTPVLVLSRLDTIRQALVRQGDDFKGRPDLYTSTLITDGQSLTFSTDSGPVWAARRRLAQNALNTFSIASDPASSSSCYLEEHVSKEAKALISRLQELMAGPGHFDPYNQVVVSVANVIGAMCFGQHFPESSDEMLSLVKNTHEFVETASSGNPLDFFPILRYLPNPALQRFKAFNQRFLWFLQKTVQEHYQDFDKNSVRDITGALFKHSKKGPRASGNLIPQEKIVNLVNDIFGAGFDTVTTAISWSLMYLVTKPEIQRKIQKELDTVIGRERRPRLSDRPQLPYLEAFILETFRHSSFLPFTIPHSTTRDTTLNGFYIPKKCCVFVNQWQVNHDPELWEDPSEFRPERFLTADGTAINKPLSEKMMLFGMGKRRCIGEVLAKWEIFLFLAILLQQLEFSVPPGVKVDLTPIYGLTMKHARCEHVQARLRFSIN

[4] = target: Cytochrome P450 2D6 (Homo sapiens, UniProt P10635);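 note: CYP2D6 member of a cytochrome P450 panel assay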
[5] = target: Luciferin 4-monooxygenase (Photinus pyralis, UniProt P08659); experiment: firefly luciferase enzyme inhibitors, dose response, biochemical, luminescence (AID 1891)
[6] = cytotoxicity in HEK-293T cells, dose response, cytotoxicity control for BCR NF-kB inhibitor project, luminescence, B-cell screen hits (AID 489021); assay type: functional, cell-based;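 note: HEK-293T cells carrying an NF-kB luciferase reporter; cells exposed to compound for about 14 hours before viability readout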
[7] = test system: BJ; experiment: cytotoxicity toward BJ-TERT-LT-ST fibroblasts, dose response, cell-based, RAS-independent, luminescence (AID 1935); assay type: functional; details: Homo sapiens;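 note: BJ fibroblasts immortalized with TERT plus LT and ST oncogenes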
[8] = test system: BJ; experiment: cells; assay type: functional, cell-based; details: Homo sapiens
[9] = target: ATP-dependent molecular chaperone HSP82 (Candida albicans (strain WO-1) (Yeast), UniProt C4YTQ8); experiment: loss of DOC-induced GRE-beta-galactosidase reporter signal, dose response, Hsp90 inhibitor project, S. cerevisiae, luminescence (AID 2400); assay type: functional, cell-based;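 note: beta-galactosidase luminescence from glucocorticoid response element reporter as proxy for Hsp90 function; inhibitor potency where signal loss means Hsp90 inhibition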
[10] = NIH-3T3 fibroblast cytotoxicity, dose response, cytotoxicity control, cell-based, fluorescence, Alamar Blue, secondary assay (AID 2327); assay type: functional;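 note: NIH-3T3 mouse fibroblasts cultured with fluconazole at 8 µg/mL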
[11] = test system: BJ; experiment: cytotoxicity toward BJ-TERT fibroblasts, dose response, cell-based, RAS-independent, luminescence (AID 1933); assay type: functional; details: Homo sapiens
[12] = target: Nonstructural protein 1 (Influenza A virus, UniProt Q194T2); assay type: functional, Influenza A virus (A/California/07/2009(H1N1))
[13] = cytotoxicity toward DRD oncogenic fibroblasts, dose response, cell-based, non-viral oncogenic, luminescence (AID 1934); assay type: functional; details: Homo sapiens
[14] = C. albicans growth with fluconazole, confirmation, fluorescence, retest (AID 2467); assay type: functional, cell-based
[15] = target: T2, Serine/threonine-protein phosphatase (Candida dubliniensis (strain CD36 / CBS 7987 / NCPF 3949 / NRRLY-17841) (Yeast), UniProt B9W6M3); experiment: calcineurin pathway inhibitors in yeast reporter, dose response, S. cerevisiae, CDRE-lacZ, luminescence, secondary (AID 2388); assay type: functional, cell-based;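 note: yeast reporter cells carrying a calcineurin-responsive lacZ construct stimulated with calcium chloride; luminescent beta-galactosidase reporter signal in whole cells rather than isolated phosphatase activity; potency for inhibition where a drop in reporter signal means calcineurin blockade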
T2 sequence (B9W6M3 whole entry): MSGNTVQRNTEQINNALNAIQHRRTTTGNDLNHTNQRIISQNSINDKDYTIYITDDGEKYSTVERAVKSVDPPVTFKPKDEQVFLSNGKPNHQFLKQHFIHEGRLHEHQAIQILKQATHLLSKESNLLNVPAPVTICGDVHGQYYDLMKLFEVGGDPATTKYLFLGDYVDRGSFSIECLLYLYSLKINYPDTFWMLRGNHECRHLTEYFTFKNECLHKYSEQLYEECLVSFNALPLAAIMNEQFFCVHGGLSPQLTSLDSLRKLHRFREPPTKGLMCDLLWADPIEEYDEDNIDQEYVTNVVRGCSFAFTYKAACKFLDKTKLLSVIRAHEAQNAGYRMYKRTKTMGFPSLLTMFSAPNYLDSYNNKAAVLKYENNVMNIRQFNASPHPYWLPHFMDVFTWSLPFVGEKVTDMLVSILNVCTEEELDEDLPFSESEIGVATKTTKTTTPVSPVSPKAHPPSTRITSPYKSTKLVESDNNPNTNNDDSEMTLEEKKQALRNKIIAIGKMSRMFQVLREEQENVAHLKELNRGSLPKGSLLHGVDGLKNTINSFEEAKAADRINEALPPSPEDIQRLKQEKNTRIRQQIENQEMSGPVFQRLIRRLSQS

[16] = test system: BJ; experiment: cytotoxicity toward Ras-transformed BJeLR fibroblasts, dose response, cell-based, alamar blue fluorescence, cherrypicked samples (AID 2631); assay type: functional; details: Homo sapiens;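 note: confirmatory dose-response assay in RAS-dependent BJ fibroblasts engineered with TERT, LT and ST, with cytotoxicity read by fluorescence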
[17] = target: Heat shock protein HSP 90-alpha (Homo sapiens, UniProt P07900); assay type: functional, organism-based
[18] = target: T3, Microphthalmia-associated transcription factor (Homo sapiens, UniProt O75030); experiment: TRPM1 promoter luciferase signal decrease, dose response, MITF inhibitor project, cell-based, SK-MEL-5, cherry-picked, set 3 (AID 493073); assay type: functional
T3 sequence (O75030 whole entry): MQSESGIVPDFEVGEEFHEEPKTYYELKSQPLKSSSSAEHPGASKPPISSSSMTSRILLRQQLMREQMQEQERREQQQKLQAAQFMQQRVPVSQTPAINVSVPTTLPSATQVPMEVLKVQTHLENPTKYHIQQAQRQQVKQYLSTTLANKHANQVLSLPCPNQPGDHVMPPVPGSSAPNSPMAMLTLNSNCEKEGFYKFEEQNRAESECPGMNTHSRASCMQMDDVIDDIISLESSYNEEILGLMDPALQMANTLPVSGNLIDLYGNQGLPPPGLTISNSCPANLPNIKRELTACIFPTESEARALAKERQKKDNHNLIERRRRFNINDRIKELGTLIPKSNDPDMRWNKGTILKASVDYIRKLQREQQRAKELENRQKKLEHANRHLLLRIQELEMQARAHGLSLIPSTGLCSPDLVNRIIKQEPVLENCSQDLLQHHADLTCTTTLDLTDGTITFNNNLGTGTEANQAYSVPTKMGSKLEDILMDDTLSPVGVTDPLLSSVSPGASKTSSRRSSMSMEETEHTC

[19] = target: DNA dC->dU-editing enzyme APOBEC-3G (Homo sapiens, UniProt Q9HC16); experiment: Dose Response confirmation of small molecule APOBEC3G DNA Deaminase Inhibitors via a fluorescence-based single-stranded DNA deaminase assay. [Related pubchem assays (depositor defined):AID493012, AID493028]; assay type: functional
[20] = target: T4, Mannose-6-phosphate isomerase (Homo sapiens, UniProt P34949); experiment: human PMI inhibitors, high substrate, primary screen, biochemical, fluorescence intensity, high mannose 6-phosphate (AID 1220)
T4 sequence (P34949 whole entry): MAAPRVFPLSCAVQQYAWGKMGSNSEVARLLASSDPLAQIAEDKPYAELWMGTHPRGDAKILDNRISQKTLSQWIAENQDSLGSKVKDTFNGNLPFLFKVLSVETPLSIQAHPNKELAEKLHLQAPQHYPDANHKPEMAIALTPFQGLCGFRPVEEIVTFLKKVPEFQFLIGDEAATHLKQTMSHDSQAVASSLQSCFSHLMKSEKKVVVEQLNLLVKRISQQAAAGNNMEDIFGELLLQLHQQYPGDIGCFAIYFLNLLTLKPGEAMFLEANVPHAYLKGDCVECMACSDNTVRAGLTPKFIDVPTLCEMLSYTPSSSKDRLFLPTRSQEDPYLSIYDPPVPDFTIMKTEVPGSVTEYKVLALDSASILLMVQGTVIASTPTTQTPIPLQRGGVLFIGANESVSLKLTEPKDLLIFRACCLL

[21] = target: Cytochrome P450 2C19 (Homo sapiens, UniProt P33261); experiment: Cytochrome panel assay with activity outcomes. Panel member name: p450-cyp2c19 Compounds with AC50 equal or less than 10 uM are considered active; assay type: functional
[22] = Luminescence Cell-Based Dose Response HTS to Identify Inhibitors of 5'UTR Stem-Loop Driven Prion Protein mRNA Translation in H4 Neuroglioblastoma Cells. [Related pubchem assays: 1827 (Project Summary), 1813 (Primary HTS)]; assay type: functional
[23] = inhibitors of SNCA 5'UTR-driven reporter translation, confirmation, H4 neuroglioma cells, luminescence (AID 1988); assay type: functional, cell-based
[24] = inhibitors of firefly luciferase expression or activity, dose response, H4 neuroglioma cells, luminescence (AID 1990); assay type: functional, cell-based
[25] = target: T5, Corticotropin-releasing factor receptor 2/Corticotropin-releasing factor-binding protein (Homo sapiens, UniProt P24387+Q13324); experiment: activators of CRF receptor 2 with binding protein – uHTS hits, confirmation (AID 602473); assay type: functional; details: read-out: EC50_Mean
T5 sequence (Q13324 whole entry): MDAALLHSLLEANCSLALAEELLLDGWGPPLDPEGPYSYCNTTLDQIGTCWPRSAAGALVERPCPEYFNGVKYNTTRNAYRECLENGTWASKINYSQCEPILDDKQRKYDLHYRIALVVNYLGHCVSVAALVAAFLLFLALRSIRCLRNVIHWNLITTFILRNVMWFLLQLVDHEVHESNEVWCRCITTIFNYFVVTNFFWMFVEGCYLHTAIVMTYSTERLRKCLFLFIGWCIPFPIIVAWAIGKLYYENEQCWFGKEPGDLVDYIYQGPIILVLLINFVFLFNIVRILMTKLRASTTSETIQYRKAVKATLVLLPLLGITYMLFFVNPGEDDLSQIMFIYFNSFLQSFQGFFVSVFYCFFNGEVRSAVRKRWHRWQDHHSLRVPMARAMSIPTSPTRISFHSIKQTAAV
T5 sequence (P24387 whole entry): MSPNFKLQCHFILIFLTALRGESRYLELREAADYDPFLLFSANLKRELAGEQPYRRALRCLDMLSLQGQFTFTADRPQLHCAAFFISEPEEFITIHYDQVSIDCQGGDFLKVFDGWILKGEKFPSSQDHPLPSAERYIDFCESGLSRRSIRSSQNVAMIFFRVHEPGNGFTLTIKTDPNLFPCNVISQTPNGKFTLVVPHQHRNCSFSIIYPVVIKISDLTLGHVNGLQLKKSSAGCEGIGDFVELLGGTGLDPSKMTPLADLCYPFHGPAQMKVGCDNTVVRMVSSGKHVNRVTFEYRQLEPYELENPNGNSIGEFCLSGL

[26] = target: Ephrin type-A receptor 4 (Mus musculus, UniProt Q03137); experiment: inhibitors of EphA4 binding to KYL peptide, primary screen, biochemical, colorimetric, mouse EphA4 (AID 689); assay type: functional
[27] = test system: CHO; experiment: cytotoxicity in TLR9-MyD88 CHO cells, dose response, cytotoxicity control for TLR9-MyD88 binding inhibitor project, cell-based, luminescence (AID 588339); assay type: functional, hamster; details: Cricetulus griseus;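 note: CHO cells stably coexpressing TLR9 and MyD88 fusions from primary screen; compound exposure lasted 48 hours before viability readout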

Sequence of Cytochrome P450 2D6 (P10635 whole entry): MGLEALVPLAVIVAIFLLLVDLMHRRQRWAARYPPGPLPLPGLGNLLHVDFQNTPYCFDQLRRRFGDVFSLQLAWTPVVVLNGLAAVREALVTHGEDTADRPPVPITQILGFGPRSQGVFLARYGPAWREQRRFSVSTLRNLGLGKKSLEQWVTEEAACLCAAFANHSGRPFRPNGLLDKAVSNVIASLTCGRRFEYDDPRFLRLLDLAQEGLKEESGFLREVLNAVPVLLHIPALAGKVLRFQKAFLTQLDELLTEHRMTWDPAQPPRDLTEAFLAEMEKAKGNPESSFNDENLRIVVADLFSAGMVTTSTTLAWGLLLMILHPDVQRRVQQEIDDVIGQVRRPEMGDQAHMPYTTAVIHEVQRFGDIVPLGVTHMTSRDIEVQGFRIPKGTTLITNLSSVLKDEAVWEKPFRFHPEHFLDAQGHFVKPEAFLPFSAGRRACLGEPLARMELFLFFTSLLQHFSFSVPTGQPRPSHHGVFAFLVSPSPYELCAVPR
Sequence of Cytochrome P450 2C19 (P33261 whole entry): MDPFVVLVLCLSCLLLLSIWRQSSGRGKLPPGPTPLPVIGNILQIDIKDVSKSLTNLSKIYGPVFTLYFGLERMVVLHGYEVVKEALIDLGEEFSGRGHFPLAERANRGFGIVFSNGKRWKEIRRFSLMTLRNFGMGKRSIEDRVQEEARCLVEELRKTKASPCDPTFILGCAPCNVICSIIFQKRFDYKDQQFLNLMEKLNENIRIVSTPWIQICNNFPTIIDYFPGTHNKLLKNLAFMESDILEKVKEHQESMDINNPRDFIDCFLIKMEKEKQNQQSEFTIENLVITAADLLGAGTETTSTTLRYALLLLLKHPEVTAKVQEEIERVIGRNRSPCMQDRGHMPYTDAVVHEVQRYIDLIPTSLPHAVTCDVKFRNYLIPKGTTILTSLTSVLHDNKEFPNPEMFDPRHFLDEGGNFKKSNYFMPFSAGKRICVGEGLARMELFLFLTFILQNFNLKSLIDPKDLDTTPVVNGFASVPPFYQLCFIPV
Sequence of DNA dC->dU-editing enzyme APOBEC-3G (Q9HC16 whole entry): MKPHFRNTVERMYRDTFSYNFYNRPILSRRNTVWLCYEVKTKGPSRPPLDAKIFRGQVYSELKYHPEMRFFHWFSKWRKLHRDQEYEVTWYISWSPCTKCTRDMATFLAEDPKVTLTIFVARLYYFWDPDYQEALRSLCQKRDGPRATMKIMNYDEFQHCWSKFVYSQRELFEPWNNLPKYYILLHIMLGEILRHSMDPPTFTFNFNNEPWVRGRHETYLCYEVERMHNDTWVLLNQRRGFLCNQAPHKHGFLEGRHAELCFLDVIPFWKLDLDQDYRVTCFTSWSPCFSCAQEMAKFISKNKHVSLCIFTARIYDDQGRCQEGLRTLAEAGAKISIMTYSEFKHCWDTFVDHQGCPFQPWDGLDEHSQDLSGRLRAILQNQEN
Sequence of Luciferin 4-monooxygenase (P08659 whole entry): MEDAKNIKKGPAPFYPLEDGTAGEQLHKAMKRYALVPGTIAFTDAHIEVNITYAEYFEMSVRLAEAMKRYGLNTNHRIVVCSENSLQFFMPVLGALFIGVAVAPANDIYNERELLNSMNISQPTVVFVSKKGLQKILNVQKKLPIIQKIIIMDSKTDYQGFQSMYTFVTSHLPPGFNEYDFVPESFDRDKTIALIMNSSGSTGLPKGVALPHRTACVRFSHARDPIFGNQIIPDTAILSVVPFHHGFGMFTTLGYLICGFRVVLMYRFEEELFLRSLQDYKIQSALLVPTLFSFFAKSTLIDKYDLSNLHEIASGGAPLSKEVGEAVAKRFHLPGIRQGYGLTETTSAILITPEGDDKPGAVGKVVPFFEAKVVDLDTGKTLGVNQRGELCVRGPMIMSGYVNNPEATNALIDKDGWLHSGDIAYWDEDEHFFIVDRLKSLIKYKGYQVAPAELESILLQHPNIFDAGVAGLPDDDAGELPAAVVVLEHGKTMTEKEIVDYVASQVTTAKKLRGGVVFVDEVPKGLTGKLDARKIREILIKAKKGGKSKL
Sequence of Nonstructural protein 1 (Q194T2 whole entry): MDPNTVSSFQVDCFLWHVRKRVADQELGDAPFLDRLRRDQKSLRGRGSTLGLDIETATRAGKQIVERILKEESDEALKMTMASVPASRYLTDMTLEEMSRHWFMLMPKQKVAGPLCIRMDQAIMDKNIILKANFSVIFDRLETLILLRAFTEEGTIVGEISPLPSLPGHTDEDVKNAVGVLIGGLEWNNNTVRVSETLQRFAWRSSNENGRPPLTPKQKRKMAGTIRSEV
Sequence of ATP-dependent molecular chaperone HSP82 (C4YTQ8 whole entry): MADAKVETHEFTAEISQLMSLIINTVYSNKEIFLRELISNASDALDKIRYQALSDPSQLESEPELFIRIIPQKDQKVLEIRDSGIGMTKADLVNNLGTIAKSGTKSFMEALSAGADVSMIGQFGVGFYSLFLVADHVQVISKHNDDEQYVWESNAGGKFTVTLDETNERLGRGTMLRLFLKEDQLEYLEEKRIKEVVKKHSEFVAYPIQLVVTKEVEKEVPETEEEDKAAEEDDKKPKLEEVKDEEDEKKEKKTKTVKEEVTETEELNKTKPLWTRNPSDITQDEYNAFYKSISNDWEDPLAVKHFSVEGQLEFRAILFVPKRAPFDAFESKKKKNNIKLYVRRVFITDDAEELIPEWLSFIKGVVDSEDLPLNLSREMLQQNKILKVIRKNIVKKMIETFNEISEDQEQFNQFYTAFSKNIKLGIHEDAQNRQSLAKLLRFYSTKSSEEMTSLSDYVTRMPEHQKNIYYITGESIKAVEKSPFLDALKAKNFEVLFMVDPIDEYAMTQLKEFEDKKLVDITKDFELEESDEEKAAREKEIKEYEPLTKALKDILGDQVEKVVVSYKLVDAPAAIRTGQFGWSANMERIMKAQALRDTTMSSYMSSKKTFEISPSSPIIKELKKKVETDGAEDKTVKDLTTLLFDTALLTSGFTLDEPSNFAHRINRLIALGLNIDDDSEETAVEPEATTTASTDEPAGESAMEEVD
Sequence of Ephrin type-A receptor 4 (Q03137 whole entry, the tested form may be a part): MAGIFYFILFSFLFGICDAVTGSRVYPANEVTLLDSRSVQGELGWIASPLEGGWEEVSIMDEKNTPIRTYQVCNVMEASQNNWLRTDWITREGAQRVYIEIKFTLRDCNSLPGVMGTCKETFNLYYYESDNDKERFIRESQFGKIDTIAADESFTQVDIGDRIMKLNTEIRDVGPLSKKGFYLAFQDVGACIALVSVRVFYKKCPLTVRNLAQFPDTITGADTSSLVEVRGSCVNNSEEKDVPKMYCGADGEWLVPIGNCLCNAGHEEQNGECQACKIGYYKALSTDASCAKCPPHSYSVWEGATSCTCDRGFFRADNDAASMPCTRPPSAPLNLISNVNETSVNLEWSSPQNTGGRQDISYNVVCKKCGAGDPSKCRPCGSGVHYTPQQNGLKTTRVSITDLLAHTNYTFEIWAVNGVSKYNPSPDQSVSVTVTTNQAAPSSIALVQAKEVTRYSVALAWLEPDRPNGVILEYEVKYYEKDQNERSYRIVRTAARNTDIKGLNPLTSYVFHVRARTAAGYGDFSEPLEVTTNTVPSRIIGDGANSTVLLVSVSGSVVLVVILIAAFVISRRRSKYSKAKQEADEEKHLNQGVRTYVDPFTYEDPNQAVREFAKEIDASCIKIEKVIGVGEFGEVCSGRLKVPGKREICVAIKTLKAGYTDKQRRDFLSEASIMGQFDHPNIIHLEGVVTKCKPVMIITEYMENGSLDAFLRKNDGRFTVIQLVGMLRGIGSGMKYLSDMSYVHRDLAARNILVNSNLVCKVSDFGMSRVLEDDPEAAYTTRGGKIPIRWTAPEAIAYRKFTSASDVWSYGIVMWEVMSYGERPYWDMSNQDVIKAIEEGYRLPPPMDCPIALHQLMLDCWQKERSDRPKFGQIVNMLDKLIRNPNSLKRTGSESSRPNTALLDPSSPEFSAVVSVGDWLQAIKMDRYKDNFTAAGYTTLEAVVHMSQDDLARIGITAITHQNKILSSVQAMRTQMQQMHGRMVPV

CCCOc1ccc(C2=CSC3=NCCN23)cc1Cl
EC50 [1]: > 50 µM (active)

COc1ccc(C(N)=O)cc1NC(=O)c1cccc(F)c1
EC50 [2]: > 112 µM (not active) | AC50 [3]: 5.01 µM (inconclusive) | AC50 [4]: inconclusive | EC50 [5]: > 112 µM (not active)

COC(=O)[C@@]12OC[C@]34[C@H]([C@@H](O)[C@@H]1O)[C@@]1(C)C(=O)C(O[C@@H]5OC(CO)[C@@H](O)[C@@H](O)[C@@H]5O)=C[C@@H](C)[C@@H]1C[C@H]3OC(=O)[C@H](OC(=O)/C=C(\C)C(C)(C)OC(C)=O)[C@@H]24 (some centres not stated)
IC50 [6]: > 80 µM (inactive)

CCOC(=O)C(/C=N/c1cc(C)ccc1C)=C(\O)OCC
IC50 [6]: > 80 µM (inactive)

O=Cc1ccc(O)c2ncccc12
EC50 [7]: 21.1 µM (inconclusive) | EC50 [8]: 33.7 µM (active) | EC50 [9]: 11.2 µM (active) | EC50 [10]: 16.1 µM (active) | EC50 [11]: 4.43 µM (active) | IC50 [12]: 1.71 µM (active) | EC50 [13]: 16.6 µM (active) | EC50 [14]: 0.333 µM (active) | EC50 [15]: 3.93 µM (active) | EC50 [16]: 0.284 µM (active) | AC50 [17]: 0.552 µM (active)

Cc1cccc(OCCn2c(S(=O)(=O)O)nc3ccccc32)c1
AC50 [4]: inconclusive

Cc1cc(C)nc(SCC(=O)NCc2ccco2)n1
EC50 [1]: > 50 µM (active)

C=CCn1c(C)cc(C2=NN=C(NC(C)(C)C)SC2)c1C
AC50 [18]: 4.09 µM (active)

O=C(NC1=NC(=O)C(F)(C(F)(F)F)S1)NC1CCCCC1 (configuration not stated)
IC50 [19]: 32.7 µM (active) | IC50 [20]: > 50 µM (not active)

CCOC(=O)c1sc(N)c(C(=O)Nc2ccccc2OC)c1C
IC50 [19]: 68.9 µM (active)

O=S(=O)(c1cnc(Cl)c(Cl)c1)N1CCCc2ccccc21
IC50 [6]: > 80 µM (inactive)

CC(=O)Nc1ccccc1C(=O)C(=O)O
AC50 [4]: inconclusive | AC50 ([21]; read-out: AC50): 10 µM (inconclusive)

CCNc1nc(C)c2cc(Br)c(=O)n(CC)c2n1
IC50 [6]: > 80 µM (inactive) | EC50 [22]: 7.96 µM (active) | EC50 [23]: 11.5 µM (active) | EC50 [24]: 15.9 µM (active)

O=[N+]([O-])c1ccc(N(c2ccccc2)c2ccccc2)cc1
EC50 [25]: 24.3 µM (active) | IC50 [26]: 10.8 µM (active) | IC50 [27]: > 49.7 µM (inactive)

CNS(=O)(=O)c1cccc(C(=O)OCc2cc(=O)oc3c(C)c(O)ccc23)c1
EC50 [1]: > 50 µM (active)

NC1(C(=O)O)CCCCC1
AC50 [4]: inconclusive | AC50 [21]: inconclusive
